From US20230019491A1, “PYRIMIDINE TBK/IKKe INHIBITOR COMPOUNDS AND USES THEREOF” (Merck Patent GmbH, priority 2017, published 2023)
Where a name gives a salt, the structure may show the parent alone.

Legend:
TBK1 = target: T1, TBK1 (Homo sapiens, UniProt Q9UHD2); test: TBK biochemical assay; details: 10 point 1:4 dose response, 30 uM top concentration, 90 min at 25° C., LabChip EZ Reader II; read-out: TBK1_IC50
T1 sequence (Q9UHD2 1-729): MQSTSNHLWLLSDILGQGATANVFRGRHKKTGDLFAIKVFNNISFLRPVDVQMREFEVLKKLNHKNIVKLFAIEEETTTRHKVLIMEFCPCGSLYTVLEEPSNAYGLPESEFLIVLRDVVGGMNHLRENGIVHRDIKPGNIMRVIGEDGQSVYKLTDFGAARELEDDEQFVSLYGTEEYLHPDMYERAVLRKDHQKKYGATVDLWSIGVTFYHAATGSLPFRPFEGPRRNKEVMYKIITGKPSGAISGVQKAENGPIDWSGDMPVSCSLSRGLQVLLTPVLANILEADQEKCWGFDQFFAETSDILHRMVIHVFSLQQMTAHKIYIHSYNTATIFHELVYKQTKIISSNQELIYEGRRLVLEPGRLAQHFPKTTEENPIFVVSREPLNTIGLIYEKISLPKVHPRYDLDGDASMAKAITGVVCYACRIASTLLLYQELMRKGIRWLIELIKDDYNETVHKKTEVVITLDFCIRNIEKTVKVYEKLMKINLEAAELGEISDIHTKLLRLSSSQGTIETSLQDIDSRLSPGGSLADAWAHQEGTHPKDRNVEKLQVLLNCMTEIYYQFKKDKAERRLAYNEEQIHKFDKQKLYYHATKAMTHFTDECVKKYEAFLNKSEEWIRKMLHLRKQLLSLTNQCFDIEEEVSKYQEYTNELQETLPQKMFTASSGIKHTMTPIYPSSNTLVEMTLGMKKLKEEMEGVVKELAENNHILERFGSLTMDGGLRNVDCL
Method in brief: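 Read-out was a Caliper LabChip mobility-shift assay, run after a 90-min, 25 °C reaction of TBK1 with substrate and compounds, quenched with stop buffer. Control wells received staurosporine at 10 uM final.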

IKKε = target: T2, IKKε (Homo sapiens, UniProt Q14164); test: IKKε biochemical assay; details: 10 point 1:4 dose response, 30 uM top concentration, 90 min at 25° C., LabChip EZ Reader II; read-out: IKKε_IC50
T2 sequence (Q14164 1-716): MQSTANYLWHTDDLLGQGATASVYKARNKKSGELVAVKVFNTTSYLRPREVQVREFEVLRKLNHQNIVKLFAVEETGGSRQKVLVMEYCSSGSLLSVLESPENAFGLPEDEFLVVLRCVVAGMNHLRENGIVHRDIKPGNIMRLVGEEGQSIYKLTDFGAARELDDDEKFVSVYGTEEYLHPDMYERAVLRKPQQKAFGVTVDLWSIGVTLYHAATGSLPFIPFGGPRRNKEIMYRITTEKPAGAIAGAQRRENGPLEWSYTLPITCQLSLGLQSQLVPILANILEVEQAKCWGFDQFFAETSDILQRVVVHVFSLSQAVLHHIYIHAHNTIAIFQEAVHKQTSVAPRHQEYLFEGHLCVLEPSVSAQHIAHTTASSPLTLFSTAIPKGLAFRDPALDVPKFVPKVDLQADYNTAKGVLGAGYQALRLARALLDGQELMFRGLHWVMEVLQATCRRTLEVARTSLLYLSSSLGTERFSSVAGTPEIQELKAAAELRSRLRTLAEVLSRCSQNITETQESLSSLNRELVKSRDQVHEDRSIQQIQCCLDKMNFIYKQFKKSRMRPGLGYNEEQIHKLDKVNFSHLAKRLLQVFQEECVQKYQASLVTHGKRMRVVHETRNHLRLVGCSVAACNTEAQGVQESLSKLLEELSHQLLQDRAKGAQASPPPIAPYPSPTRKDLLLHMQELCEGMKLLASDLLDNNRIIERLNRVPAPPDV
Method in brief: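 Mobility-shift LabChip read-out followed a 90 min, 25° C. reaction of IKKε with substrate and test compound, with DMSO held at 1% final. Reactions were ended with stop buffer. Wells with 10 uM final staurosporine defined complete inhibition, and DMSO-only wells the uninhibited level.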

| SMILES | IC50 (TBK1) [nM] | IC50 (IKKε) [nM] |
| --- | --- | --- |
| COc1nc(Nc2nccc(-c3ccc(OC4CCN(C(=O)C(C)O)CC4)c(C#N)c3)n2)ccc1N1CCN(C)CC1 (stereo not drawn) [Example 91, 2-[[1-(2-hydroxypropanoyl)piperidin-4-yl]oxy]-5-(2-[[6-methoxy-5-(4-methylpiperazin-1-yl)pyridin-2-yl]amino]pyrimidin-4-yl)benzonitrile hydrochloride] | < 100 | < 100 |
| CN1CCN(c2ccc(Nc3nccc(-c4ccc(OC5CCOCC5)c(C#N)c4)n3)cn2)CC1 [Example 66, 5-{2-[6-(4-Methyl-piperazin-1-yl)-pyridin-3-ylamino]-pyrimidin-4-yl}-2-(tetrahydro-pyran-4-yloxy)-benzonitrile] | < 100 | < 100 |
| C[C@@H](O)C(=O)N1CCC(Oc2ccc(-c3ccnc(Nc4ccc(N5CCN(C6COC6)CC5)cc4)n3)cc2C#N)C1 (stereo partly drawn) [Example 179, 2-([1-[(2R)-2-hydroxypropanoyl]pyrrolidin-3-yl]oxy)-5-[2-([4-[4-(oxetan-3-yl)piperazin-1-yl]phenyl]amino)pyrimidin-4-yl]benzonitrile] | < 100 | < 100 |
| COc1nc(Nc2nccc(-c3ccc(O[C@H]4CCN(C(=O)CO)CC4(F)F)c(C#N)c3)n2)ccc1N1CCN(C)CC1 [Example 100, 2-[[(4S)-3,3-difluoro-1-(2-hydroxyacetyl)piperidin-4-yl]oxy]-5-(2-[[6-methoxy-5-(4-methylpiperazin-1-yl)pyridin-2-yl]amino]pyrimidin-4-yl)benzonitrile] | < 100 | < 100 |
| COc1cc(Nc2nccc(-c3ccc(OC4CCN(C(=O)[C@@H](C)O)CC4)c(C#N)c3)n2)cnc1N1CCN(C2COC2)CC1 [Example 321, 2-([1-[(2R)-2-hydroxypropanoyl]piperidin-4-yl]oxy)-5-[2-([5-methoxy-6-[4-(oxetan-3-yl)piperazin-1-yl]pyridin-3-yl]amino)pyrimidin-4-yl]benzonitrile] | < 100 | < 100 |
| COc1cc(Nc2nccc(-c3ccc(OC4CCN(C(=O)C(C)O)CC4(F)F)c(C#N)c3)n2)ccn1 (stereo in doubt) [Example 327, 2-([3,3-difluoro-1-[(2S)-2-hydroxypropanoyl]piperidin-4-yl]oxy)-5-[2-[(2-methoxypyridin-4-yl)amino]pyrimidin-4-yl]benzonitrile] | < 100 | < 100 |
| COc1cc(Nc2nccc(-c3ccc(OC4CCN(C(=O)[C@H](C)O)CC4(F)F)c(C#N)c3)n2)ncc1N1CCN(C2COC2)CC1 (stereo partly drawn) [Example 322, 2-([33-difluoro-1-[(2S)-2-hydroxypropanoyl]piperidin-4-yl]oxy)-5-[2-([4-methoxy-5-[4-(oxetan-3-yl)piperazin-1-yl]pyridin-2-yl]amino)pyrimidin-4-yl]benzonitrile] | < 100 | < 100 |
| COc1nc(Nc2nccc(-c3ccc(O[C@H]4CCN(C(=O)[C@H](C)O)C[C@@H]4F)c(C#N)c3)n2)ccc1N1CCN(C2COC2)CC1 [Example 196, 2-[(3S,4S)-3-Fluoro-1-((S)-2-hydroxy-propionyl)-piperidin-4-yloxy]-5-{2-[6-methoxy-5-(4-oxetan-3-yl-piperazin-1-yl)-pyridin-2-ylamino]-pyrimidin-4-yl}-benzonitrile] | < 100 | < 100 |
| COc1nc(Nc2nccc(-c3ccc(O[C@@H]4CCNC[C@@H]4F)c(C#N)c3)n2)ccc1C1CCN(C2COC2)CC1 [Example 235, 2-((3S,4R)-3-Fluoro-piperidin-4-yloxy)-5-[2-(2-methoxy-1′-oxetan-3-yl-1′,2′,3′,4′,5′,6′-hexahydro-[3,4′]bipyridinyl-6-ylamino)-pyrimidin-4-yl]-benzonitrile] | 100 to 1000 | 100 to 1000 |
| COc1nc(Nc2nccc(-c3ccc(OC4CCNCC4(F)F)c(C#N)c3)n2)ccc1N1CCN(C2COC2)[C@@H](C)C1 (stereo partly drawn) [Example 123, 2-(3,3-Difluoro-piperidin-4-yloxy)-5-{2-[6-methoxy-5-((S)-3-methyl-4-oxetan-3-yl-piperazin-1-yl)-pyridin-2-ylamino]-pyrimidin-4-yl}-benzonitrile] | < 100 | < 100 |
| C[C@@H](O)C(=O)N1CCC(Oc2ccc(-c3ccnc(Nc4cccc(C5CCN(C(CO)CO)CC5)c4)n3)cc2C#N)C(F)(F)C1 (stereo partly drawn) [Example 158, 2-[3,3-Difluoro-1-((R)-2-hydroxy-propionyl)-piperidin-4-yloxy]-5-(2-{3-[1-(2-hydroxy-1-hydroxymethyl-ethyl)-piperidin-4-yl]-phenylamino}-pyrimidin-4-yl)-benzonitrile] | < 100 | < 100 |
| COc1cccc(Nc2nccc(-c3ccc(OC4CCN(C(=O)C(C)O)CC4(F)F)c(C#N)c3)n2)n1 (stereo in doubt) [Example 328, 2-([3,3-difluoro-1-[(2S)-2-hydroxypropanoyl]piperidin-4-yl]oxy)-5-[2-[(6-methoxypyridin-2-yl)amino]pyrimidin-4-yl]benzonitrile] | < 100 | < 100 |
| COc1nc(Nc2nccc(-c3ccc(O[C@@H]4CCN(C(=O)[C@@H](C)O)C[C@@H]4F)c(C#N)c3)n2)ccc1N1CCN(C2COC2)CC1 [Example 117, 2-[(3S,4R)-3-Fluoro-1-((R)-2-hydroxy-propionyl)-piperidin-4-yloxy]-5-{2-[6-methoxy-5-(4-oxetan-3-yl-piperazin-1-yl)-pyridin-2-ylamino]-pyrimidin-4-yl}-benzonitrile] | < 100 | < 100 |
| COc1nc(Nc2nccc(-c3ccc(OC4CCN(C(=O)[C@@H]5CCCO5)CC4(F)F)c(C#N)c3)n2)ccc1N1CCN(C2COC2)CC1 (stereo partly drawn) [Example 254, 2-[3,3-Difluoro-1-((S)-tetrahydro-furan-2-carbonyl)-piperidin-4-yloxy]-5-{2-[6-methoxy-5-(4-oxetan-3-yl-piperazin-1-yl)-pyridin-2-ylamino]-pyrimidin-4-yl}-benzonitrile] | < 100 | < 100 |
| COc1nc(Nc2nccc(-c3ccc(O[C@H]4CCN(C(=O)[C@H](C)O)C[C@@H]4F)c(C#N)c3)n2)ccc1C1CCN(C2COC2)CC1 [Example 189, 2-[(3S,4S)-3-Fluoro-1-((S)-2-hydroxy-propionyl)-piperidin-4-yloxy]-5-[2-(2-methoxy-1′-oxetan-3-yl-1′,2′,3′,4′,5′,6′-hexahydro-[3,4′]bipyridinyl-6-ylamino)-pyrimidin-4-yl]-benzonitrile] | < 100 | < 100 |
| C[C@H](O)C(=O)N1CC[C@H](Oc2ccc(-c3ccnc(Nc4ccc(N5CCN(C6COC6)CC5)cc4)n3)cc2C#N)C(F)(F)C1 [Example 139, 2-[[(4S)-3,3-difluoro-1-[(2S)-2-hydroxypropanoyl]piperidin-4-yl]oxy]-5-[2-([4-[4-(oxetan-3-yl)piperazin-1-yl]phenyl]amino)pyrimidin-4-yl]benzonitrile] | < 100 | < 100 |
| COc1cc(Nc2nccc(-c3cc(C#N)c(OC4CCOCC4)cn3)n2)ncc1C(=O)N(C)C [Example 51, 6-([4-[4-cyano-5-(oxan-4-yloxy)pyridin-2-yl]pyrimidin-2-yl]amino)-4-methoxy-N,N-dimethylpyridine-3-carboxamide] | > 5000 | > 5000 |
| COc1nc(Nc2nccc(-c3ccc(OC4CCNCC4(F)F)c(C#N)c3)n2)ccc1N1CCN(C2COC2)C[C@H]1C (stereo partly drawn) [Example 129, 2-(3,3-Difluoro-piperidin-4-yloxy)-5-{2-[6-methoxy-5-((R)-2-methyl-4-oxetan-3-yl-piperazin-1-yl)-pyridin-2-ylamino]-pyrimidin-4-yl}-benzonitrile] | < 100 | < 100 |
